Source: patent US7851474B2, “Dipiperazinyl ketones and related analogues” (Neurogen Corporation, priority 2005, dated 2010)

These compounds were tested against T1, chimeric human H3 receptor (Homo sapiens, UniProt Q9Y5N1, E19D) (assay: Chimeric human H3 receptor GTP binding assay (agonist-stimulated GTP-gamma35S binding, Example 7)). Conditions: Table II; assay of Example 7; "*" in Ki; read-out: Ki.
T1 construct: made in house; host or cells: Sf9 insect cells (baculovirus infection); P2 membrane preparation
Format: biochemical
How it was run: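 IC50 values come from non-linear regression of dose-response curves of filter-bound GTP-gamma^35S, counted by scintillation. Membranes were from infected Sf9 cells carrying receptor plus G-protein subunits, 35 μg/tube, with 10 μM GDP present.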

T1 sequence (Q9Y5N1 with tags, fused parts or gaps E19D): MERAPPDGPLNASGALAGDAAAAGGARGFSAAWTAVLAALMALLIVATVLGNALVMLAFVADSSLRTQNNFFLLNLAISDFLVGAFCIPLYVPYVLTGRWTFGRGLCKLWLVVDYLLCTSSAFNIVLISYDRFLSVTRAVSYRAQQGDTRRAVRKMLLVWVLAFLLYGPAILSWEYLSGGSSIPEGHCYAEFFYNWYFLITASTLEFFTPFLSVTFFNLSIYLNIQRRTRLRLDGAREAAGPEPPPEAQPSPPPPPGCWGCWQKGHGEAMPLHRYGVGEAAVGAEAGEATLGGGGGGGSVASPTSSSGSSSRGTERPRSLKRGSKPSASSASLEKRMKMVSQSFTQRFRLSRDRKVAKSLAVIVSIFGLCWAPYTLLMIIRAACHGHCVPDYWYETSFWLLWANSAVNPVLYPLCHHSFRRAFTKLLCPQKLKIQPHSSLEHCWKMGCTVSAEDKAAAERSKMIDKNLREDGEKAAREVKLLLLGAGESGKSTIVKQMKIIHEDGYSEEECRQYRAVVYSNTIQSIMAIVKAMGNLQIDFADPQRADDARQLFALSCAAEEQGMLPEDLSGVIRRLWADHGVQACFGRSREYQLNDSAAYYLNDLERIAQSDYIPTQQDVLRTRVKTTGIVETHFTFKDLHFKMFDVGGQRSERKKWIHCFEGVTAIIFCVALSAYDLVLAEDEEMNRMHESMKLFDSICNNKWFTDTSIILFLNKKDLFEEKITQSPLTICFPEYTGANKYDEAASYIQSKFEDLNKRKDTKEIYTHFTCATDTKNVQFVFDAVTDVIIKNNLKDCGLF

| Ki [nM] | Structure (SMILES) |
| --- | --- |
| < 1000 | O=C(NCC1CCCCC1)c1cccc(N2CCN(CC(=O)N3CCN(C4CCC4)CC3)CC2)c1 [Compound 1084, 3-{4-[2-(4-cyclobutylpiperazin-1-yl)-2-oxoethyl]piperazin-1-yl}-N-(cyclohexylmethyl) benzamide] |
| < 1000 | CC(C)(C)CNC(=O)c1cccc(N2CCN(CC(=O)N3CCN(C4CCC4)CC3)CC2)c1 [Compound 1085, 3-{4-[2-(4-cyclobutylpiperazin-1-yl)-2-oxoethyl]piperazin-1-yl}-N-(2,2-dimethylpropyl) benzamide] |
| < 1000 | CCC(CC)CNC(=O)c1cccc(N2CCN(CC(=O)N3CCN(C4CCC4)CC3)CC2)c1 [Compound 1086, 3-{4-[2-(4-cyclobutylpiperazin-1-yl)-2-oxoethyl]piperazin-1-yl}-N-(2-ethylbutyl)benzamide] |
| < 1000 | O=C(CN1CCN(c2ccc(Cl)nn2)CC1)N1CCN(C2CCC2)CC1 [Compound 1087, 3-chloro-6-{4-[2-(4-cyclobutylpiperazin-1-yl)-2-oxoethyl]piperazin-1-yl}pyridazine] |
| < 1000 | O=C(CN1CCN(c2cccc(C(=O)N3CCSCC3)c2)CC1)N1CCN(C2CCC2)CC1 [Compound 1091, 4-(3-{4-[2-(4-cyclobutylpiperazin-1-yl)-2-oxoethyl]piperazin-1-yl}benzoyl) thiomorpholine] |
| < 1000 | CC1CN(C(=O)c2cccc(N3CCN(CC(=O)N4CCN(C5CCC5)CC4)CC3)c2)CC(C)O1 (stereo not drawn) [Compound 1092, 4-(3-{4-[2-(4-cyclobutylpiperazin-1-yl)-2-oxoethyl]piperazin-1-yl}benzoyl)-2,6-dimethylmorpholine] |
| < 1000 | O=C(CN1CCN(c2ccc(C(=O)N3CCOCC3)cc2)CC1)N1CCN(C2CCC2)CC1 [Compound 1093, 4-(4-{4-[2-(4-cyclobutylpiperazin-1-yl)-2-oxoethyl]piperazin-1-yl}benzoyl)morpholine] |
| < 1000 | O=C(CN1CCN(c2ccc(C(=O)N3CCSCC3)cc2)CC1)N1CCN(C2CCC2)CC1 [Compound 1094, 4-(4-{4-[2-(4-cyclobutylpiperazin-1-yl)-2-oxoethyl]piperazin-1-yl}benzoyl) thiomorpholine] |
| < 1000 | CC1CN(C(=O)c2ccc(N3CCN(CC(=O)N4CCN(C5CCC5)CC4)CC3)cc2)CC(C)O1 (stereo not drawn) [Compound 1095, 4-(4-{4-[2-(4-cyclobutylpiperazin-1-yl)-2-oxoethyl]piperazin-1-yl}benzoyl)-2,6-dimethylmorpholine] |
| < 1000 | CC(=O)c1ccc(N2CCN(CC(=O)N3CCN(C4CCC4)CC3)C(=O)C2)cc1 [Compound 1096, 4-(4-acetylphenyl)-1-[2-(4-cyclobutylpiperazin-1-yl)-2-oxoethyl]piperazin-2-one] |
| < 1000 | CN(C)c1ccc(-c2cnc(N3CCN(CC(=O)N4CCN(C5CCC5)CC4)CC3)cn2)cc1 [Compound 1097, 4-(5-{4-[2-(4-cyclobutylpiperazin-1-yl)-2-oxoethyl]piperazin-1-yl}pyrazin-2-yl)-N,N-dimethylaniline] |
| < 1000 | N#Cc1ccc(-c2cnc(N3CCN(CC(=O)N4CCN(C5CCC5)CC4)CC3)cn2)cc1 [Compound 1098, 4-(5-{4-[2-(4-cyclobutylpiperazin-1-yl)-2-oxoethyl]piperazin-1-yl}pyrazin-2-yl)benzonitrile] |
| < 1000 | CN(C)c1ccc(-c2ccc(N3CCN(CC(=O)N4CCN(C5CCC5)CC4)CC3)nn2)cc1 [Compound 1099, 4-(6-{4-[2-(4-cyclobutylpiperazin-1-yl)-2-oxoethyl]piperazin-1-yl}pyndazin-3-yl)-N,N-dimethylaniline] |
| < 1000 | N#Cc1ccc(-c2ccc(N3CCN(CC(=O)N4CCN(C5CCC5)CC4)CC3)nn2)cc1 [Compound 1100, 4-(6-{4-[2-(4-cyclobutylpiperazin-1-yl)-2-oxoethyl]piperazin-1-yl}pyridazin-3-yl)benzonitrile] |
| < 1000 | O=C(CN1CCN(c2ccc(C(=O)N3CCSCC3)cn2)CC1)N1CCN(C2CCC2)CC1 [Compound 1101] |
| < 1000 | C=CCN1CCN(C(=O)CN2CCN(c3ccc(OC)cc3)C(C)C2)CC1 (stereo not drawn) [Compound 1102, 4-[2-(4-allylpiperazin-1-yl)-2-oxoethyl]-1-(4-methoxyphenyl)-2-methylpiperazine] |
| < 1000 | COc1ccc(N2CCN(CC(=O)N3CCN(C4CCC4)CC3)CC2C)cc1 (stereo not drawn) [Compound 1103, 4-[2-(4-cyclobutylpiperazin-1-yl)-2-oxoethyl]-1-(4-methoxyphenyl)-2-methylpiperazine] |
| < 1000 | Cc1cccc(N2CCN(CC(=O)N3CCN(C4CCC4)CC3)CC2C)c1 (stereo not drawn) [Compound 1104, 4-[2-(4-cyclobutylpiperazin-1-yl)-2-oxoethyl]-2-methyl-1-(3-methylphenyl)piperazine] |
| < 1000 | Cc1ccc(N2CCN(CC(=O)N3CCN(C4CCC4)CC3)CC2C)cc1 (stereo not drawn) [Compound 1105, 4-[2-(4-cyclobutylpiperazin-1-yl)-2-oxoethyl]-2-methyl-1-(4-methylphenyl)piperazine] |
| < 1000 | COc1ccc(N2CCN(CC(=O)N3CCN(C4CCCCC4)CC3)CC2C)cc1 (stereo not drawn) [Compound 1106, 4-[2-(4-cyclohexylpiperazin-1-yl)-2-oxoethyl]-1-(4-methoxyphenyl)-2-methylpiperazine] |

| Ki [nM] | Structure (SMILES) |
| --- | --- |
| < 1000 | Cc1ccc(N2CCN(CC(=O)N3CCN(C4CCCC4)CC3)CC2C)cc1 (stereo not drawn) [Compound 1109, 4-[2-(4-cyclopentylpiperazin-1-yl)-2-oxoethyl]-2-methyl-1-(4-methylphenyl)piperazine] |
| < 1000 | CCN1CCN(C(=O)CN2CCN(c3ccc(OC)cc3)C(C)C2)CC1 (stereo not drawn) [Compound 1110, 4-[2-(4-ethylpiperazin-1-yl)-2-oxoethyl]-1-(4-methoxyphenyl)-2-methylpiperazine] |
| < 1000 | COc1ccc(N2CCN(CC(=O)N3CCN(C(C)C)CC3)CC2C)cc1 (stereo not drawn) [Compound 1111, 4-[2-(4-isopropylpiperazin-1-yl)-2-oxoethyl]-1-(4-methoxyphenyl)-2-methylpiperazine] |
| < 1000 | CCC(C)N1CCN(C(=O)CN2CCN(c3ccc(OC)cc3)C(C)C2)CC1 (stereo not drawn) [Compound 1113, 4-[2-(4-sec-butylpiperazin-1-yl)-2-oxoethyl]-1-(4-methoxyphenyl)-2-methylpiperazine] |
| < 1000 | CCC(C)N1CCN(C(=O)CN2CCN(c3cccc(C)c3)C(C)C2)CC1 (stereo not drawn) [Compound 1114, 4-[2-(4-sec-butylpiperazin-1-yl)-2-oxoethyl]-2-methyl-1-(3-methylphenyl)piperazine] |
| < 1000 | O=C(CN1CCC(N2CCOCC2)CC1)N1CCN(C2CCC2)CC1 [Compound 1115, 4-{1-[2-(4-cyclobutylpiperazin-1-yl)-2-oxoethyl]piperidin-4-yl}morpholine] |
| < 1000 | CCC(C)N1CCN(C(=O)CN2CCC(N3CCOCC3)CC2)CC1 (stereo not drawn) [Compound 1116, 4-{1-[2-(4-sec-butylpiperazin-1-yl)-2-oxoethyl]piperidin-4-yl}morpholine] |
| < 1000 | CN(C)c1cccc(-c2ccc(N3CCN(CC(=O)N4CCN(C5CCC5)CC4)CC3)cc2)c1 [Compound 1117, 4′-{1-[2-(4-cyclobutylpiperazin-1-yl)-2-oxoethyl]piperazin-1-yl}-N,N-dimethylbiphenyl-3-amine] |
| < 1000 | N#Cc1cccc(-c2ccc(N3CCN(CC(=O)N4CCN(C5CCC5)CC4)CC3)cc2)c1 [Compound 1118, 4′-{1-[2-(4-cyclobutylpiperazin-1-yl)-2-oxoethyl]piperazin-1-yl}biphenyl-3-carbonitrile] |
| < 1000 | N#Cc1ccc(-c2ccc(N3CCN(CC(=O)N4CCN(C5CCC5)CC4)CC3)cc2)cc1 [Compound 1119, 4′-{1-[2-(4-cyclobutylpiperazin-1-yl)-2-oxoethyl]piperazin-1-yl}biphenyl-4-carbonitrile] |
| < 1000 | O=C(O)c1ccc(N2CCN(CC(=O)N3CCN(C4CCC4)CC3)CC2)cc1 [Compound 1120, 4-{1-[2-(4-cyclobutylpiperazin-1-yl)-2-oxoethyl]piperazin-1-yl}benzoic acid] |
| < 1000 | N#Cc1ccc(N2CCN(CC(=O)N3CCN(C4CCC4)CC3)CC2)cc1 [Compound 1121, 4-{1-[2-(4-cyclobutylpiperazin-1-yl)-2-oxoethyl]piperazin-1-yl}benzonitrile] |
| < 1000 | CNC(=O)c1ccc(N2CCN(CC(=O)N3CCN(C4CCC4)CC3)CC2)cc1 [Compound 1122, 4-{1-[2-(4-cyclobutylpiperazin-1-yl)-2-oxoethyl]piperazin-1-yl}-N-methylbenzamide] |
| < 1000 | CN(C)C(=O)c1ccc(N2CCN(CC(=O)N3CCN(C4CCC4)CC3)CC2)cc1 [Compound 1123, 4-{1-[2-(4-cyclobutylpiperazin-1-yl)-2-oxoethyl]piperazin-1-yl}-N,N-dimethylbenzamide] |
| < 1000 | CCNC(=O)c1ccc(N2CCN(CC(=O)N3CCN(C4CCC4)CC3)CC2)cc1 [Compound 1124, 4-{1-[2-(4-cyclobutylpiperazin-1-yl)-2-oxoethyl]piperazin-1-yl}-N-ethylbenzamide] |
| < 1000 | CCN(CC)C(=O)c1ccc(N2CCN(CC(=O)N3CCN(C4CCC4)CC3)CC2)cc1 [Compound 1125, 4-{4-[2-(4-cyclobutylpiperazin-1-yl)-2-oxoethyl]piperazin-1-yl}-N,N-diethylbenzamide] |
| < 1000 | CCN(C(=O)c1ccc(N2CCN(CC(=O)N3CCN(C4CCC4)CC3)CC2)cc1)C(C)C [Compound 1126, 4-{4-[2-(4-cyclobutylpiperazin-1-yl)-2-oxoethyl]piperazin-1-yl}-N-ethyl-N-isopropylbenzamide] |
| < 1000 | CC(C)N(C)C(=O)c1ccc(N2CCN(CC(=O)N3CCN(C4CCC4)CC3)CC2)cc1 [Compound 1127, 4-{4-[2-(4-cyclobutylpiperazin-1-yl)-2-oxoethyl]piperazin-1-yl}-N-isopropyl-N-methylbenzamide] |
| < 1000 | CN(C(=O)c1ccc(N2CCN(CC(=O)N3CCN(C4CCC4)CC3)CC2)cc1)C1CCCCC1 [Compound 1128, 4-{4-[2-(4-cyclobutylpiperazin-1-yl)-2-oxoethyl]piperazin-1-yl}-N-cyclohexyl-N-methylbenzamide] |
